Test results published in ChEMBL document CHEMBL4715742, “Design, synthesis and cytotoxic activities of novel 2,5-diketopiperazine derivatives” (Eur J Med Chem, 2016).

How the values were obtained:
Type in all cases: functional, cell-based
[1] = tested on: U-937; assay: Cytotoxicity against human U-937 cells assessed as reduction in cell viability measured after 72 hrs by CCK8 assay
[2] = tested on: K562; assay: Cytotoxicity against human K562 cells assessed as reduction in cell viability measured after 72 hrs by CCK8 assay
[3] = tested on: HL-60; assay: Cytotoxicity against human HL-60 cells assessed as reduction in cell viability measured after 72 hrs by CCK8 assay
[4] = tested on: A549; assay: Cytotoxicity against human A549 cells assessed as reduction in cell viability measured after 72 hrs by CCK8 assay
[5] = tested on: MCF7; assay: Cytotoxicity against human MCF7 cells assessed as reduction in cell viability measured after 72 hrs by CCK8 assay
[6] = tested on: HeLa; assay: Cytotoxicity against human HeLa cells assessed as reduction in cell viability measured after 72 hrs by CCK8 assay
[7] = tested on: DU-145; assay: Cytotoxicity against human DU-145 cells assessed as reduction in cell viability measured after 72 hrs by CCK8 assay
[8] = tested on: HT-29; assay: Cytotoxicity against human HT-29 cells assessed as reduction in cell viability measured after 72 hrs by CCK8 assay
[9] = Homo sapiens, U-937, 72 h, read-out: IC50
[10] = Homo sapiens, K562, 72 h, read-out: IC50
[11] = Homo sapiens, HL-60, 72 h, read-out: IC50
[12] = Homo sapiens, A549, 72 h, read-out: IC50
[13] = Homo sapiens, MCF7, 72 h, read-out: IC50
[14] = Homo sapiens, HeLa, 72 h, read-out: IC50
[15] = Homo sapiens, DU-145, 72 h, read-out: IC50
[16] = Homo sapiens, HT-29, 72 h, read-out: IC50

C=CCn1c(=O)/c(=C/CCCC)[nH]c(=O)/c1=C/c1ccccc1OC
IC50 [1, 9]: 0.9 µM
IC50 [2, 10]: 1.4 µM
IC50 [3, 11]: 0.5 µM
IC50 [4, 12]: 4 µM
IC50 [5, 13]: 3.1 µM
IC50 [6, 14]: 2.4 µM
IC50 [7, 15]: 4.3 µM
IC50 [8, 16]: 3.3 µM

C=CCn1c(=O)/c(=C/CC)[nH]c(=O)/c1=C/c1ccc(OC)cc1
IC50 [1, 9]: 1.48 µM
IC50 [2, 10]: 2.1 µM
IC50 ([3]; hl-60): Not Active
IC50 [4, 12]: 6.1 µM
IC50 [5, 13]: 4.3 µM
IC50 [6, 14]: 4.6 µM
IC50 [7, 15]: 8.9 µM
IC50 [8, 16]: 4.2 µM

C=CCn1c(=O)/c(=C/CCCCCCCCC)[nH]c(=O)/c1=C/c1ccc(OC)cc1
IC50 [1, 9]: 10.3 µM
IC50 [2, 10]: 11.7 µM
IC50 [3, 11]: 5.3 µM
IC50 ([4]; a549): Not Active
IC50 ([5]; mcf7): Not Active
IC50 ([6]; hela): Not Active
IC50 ([7]; du-145): Not Active
IC50 ([8]; ht-29): Not Active

C=CCn1c(=O)/c(=C/CC)[nH]c(=O)/c1=C/c1cccc(OC)c1
IC50 ([1]; u-937): Not Active
IC50 ([2]; k562): Not Active
IC50 ([3]; hl-60): Not Active
IC50 ([4]; a549): Not Active
IC50 ([5]; mcf7): Not Active
IC50 ([6]; hela): Not Active
IC50 ([7]; du-145): Not Active
IC50 ([8]; ht-29): Not Active

C=CCn1c(=O)/c(=C/CCCCCCCCCCCCCCC)[nH]c(=O)/c1=C/c1ccc(OC)cc1
IC50 ([1]; u-937): Not Active
IC50 ([2]; k562): Not Active
IC50 ([3]; hl-60): Not Active
IC50 ([4]; a549): Not Active
IC50 ([5]; mcf7): Not Active
IC50 ([6]; hela): Not Active
IC50 ([7]; du-145): Not Active
IC50 ([8]; ht-29): Not Active

C=CCn1c(=O)/c(=C/CCCCCCCCC)[nH]c(=O)/c1=C/c1ccccc1OC
IC50 [1, 9]: 18.8 µM
IC50 [2, 10]: 10.4 µM
IC50 [3, 11]: 3.4 µM
IC50 ([4]; a549): Not Active
IC50 ([5]; mcf7): Not Active
IC50 ([6]; hela): Not Active
IC50 ([7]; du-145): Not Active
IC50 ([8]; ht-29): Not Active

C=CCn1c(=O)/c(=C/CCCCCCCCCC)[nH]c(=O)/c1=C/c1ccccc1OC
IC50 ([1]; u-937): Not Active
IC50 ([2]; k562): Not Active
IC50 ([3]; hl-60): Not Active
IC50 ([4]; a549): Not Active
IC50 ([5]; mcf7): Not Active
IC50 ([6]; hela): Not Active
IC50 ([7]; du-145): Not Active
IC50 ([8]; ht-29): Not Active

C=CCn1c(=O)/c(=C/CCCCCCCC)[nH]c(=O)/c1=C/c1ccc(OC)cc1
IC50 [1, 9]: 3.7 µM
IC50 [2, 10]: 5.6 µM
IC50 [3, 11]: 26.5 µM
IC50 [4, 12]: 15.8 µM
IC50 [5, 13]: 10.1 µM
IC50 [6, 14]: 8.1 µM
IC50 [7, 15]: 7.9 µM
IC50 [8, 16]: 10.8 µM

C=CCn1c(=O)/c(=C/CCCCCCCC)[nH]c(=O)/c1=C/c1cccc(OC)c1
IC50 ([1]; u-937): Not Active
IC50 ([2]; k562): Not Active
IC50 ([3]; hl-60): Not Active
IC50 ([4]; a549): Not Active
IC50 ([5]; mcf7): Not Active
IC50 ([6]; hela): Not Active
IC50 ([7]; du-145): Not Active
IC50 ([8]; ht-29): Not Active

C=CCn1c(=O)/c(=C/CCCCCCCCCC)[nH]c(=O)/c1=C/c1cccc(OC)c1
IC50 ([1]; u-937): Not Active
IC50 ([2]; k562): Not Active
IC50 ([3]; hl-60): Not Active
IC50 ([4]; a549): Not Active
IC50 ([5]; mcf7): Not Active
IC50 ([6]; hela): Not Active
IC50 ([7]; du-145): Not Active
IC50 ([8]; ht-29): Not Active

C=CCn1c(=O)/c(=C/CCCCCCCCCCC)[nH]c(=O)/c1=C/c1ccccc1OC
IC50 ([1]; u-937): Not Active
IC50 ([2]; k562): Not Active
IC50 ([3]; hl-60): Not Active
IC50 ([4]; a549): Not Active
IC50 ([5]; mcf7): Not Active
IC50 ([6]; hela): Not Active
IC50 ([7]; du-145): Not Active
IC50 ([8]; ht-29): Not Active

C=CCn1c(=O)/c(=C/CCC)[nH]c(=O)/c1=C/c1ccc(OC)cc1
IC50 [1, 9]: 2.2 µM
IC50 [2, 10]: 2.9 µM
IC50 [3, 11]: 6.2 µM
IC50 [4, 12]: 12.3 µM
IC50 [5, 13]: 9.3 µM
IC50 [6, 14]: 7.1 µM
IC50 [7, 15]: 13.1 µM
IC50 [8, 16]: 8.3 µM

C=CCn1c(=O)/c(=C/CCCCCCCCC)[nH]c(=O)/c1=C/c1cccc(OC)c1
IC50 ([1]; u-937): Not Active
IC50 ([2]; k562): Not Active
IC50 ([3]; hl-60): Not Active
IC50 ([4]; a549): Not Active
IC50 ([5]; mcf7): Not Active
IC50 ([6]; hela): Not Active
IC50 ([7]; du-145): Not Active
IC50 ([8]; ht-29): Not Active

C=CCn1c(=O)/c(=C/c2cccc(Cl)c2Cl)[nH]c(=O)/c1=C/c1ccccc1OC
IC50 [1, 9]: 0.5 µM
IC50 [2, 10]: 0.9 µM
IC50 [3, 11]: 2 µM
IC50 [4, 12]: 2.3 µM
IC50 [5, 13]: 2.1 µM
IC50 [6, 14]: 1.6 µM
IC50 [7, 15]: 4.2 µM
IC50 [8, 16]: 3.2 µM

C=CCn1c(=O)/c(=C/CCCCC)[nH]c(=O)/c1=C/c1ccc(OC)cc1
IC50 [1, 9]: 0.5 µM
IC50 [2, 10]: 0.7 µM
IC50 ([3]; hl-60): Not Active
IC50 [4, 12]: 1.9 µM
IC50 [5, 13]: 2.3 µM
IC50 [6, 14]: 1.1 µM
IC50 [7, 15]: 2.1 µM
IC50 [8, 16]: 1.7 µM
